The text below walks through data of patent publication US4492693A, “Benzothienylglycyl cephalosporin derivatives” (priority 1983, dated 1985).

Converted amounts (≈) assume the structure as drawn. Read-outs that look alike come from different tables or passages of the source.

Assay type in all cases: cell-based
For one test, the system named is Strep. D. Description: Agar Dilution MIC (Table I). Particulars: read-out: Agar Dilution MIC. From the text:
(§1) A typical and preferred compound provided by this invention is 7-(3-benzothienyl)glycylamido-3-methyl-3-cephem-4-carboxylic acid, the compound illustrated in Example 9. The antibacterial activity of this compound has been determined in standard in vitro agar dilution assays against a variety of gram positive and gram negative microorganism. The following Tables present typical minimum inhibitory concentrations (MIC's) in μg/ml for several compounds of the invention when evaluated against the indicated microorganisms. MIC's for several known compounds are also presented for comparison.
Agar Dilution MIC (μg/ml)

The subject of the next test is E. coli. Put plainly: Agar Dilution MIC (Table I). The note with it: Escherichia coli.
A further test relates to Strep. PN. Description: Agar Dilution MIC (Table I). Particulars: strain PARK.
Another test has as its system Strep. A. Description: Agar Dilution MIC (Table I). Particulars: strain C203; read-out: Agar Dilution MIC.
The next test relates to Staph. epi. Put plainly: Agar Dilution MIC (Table I). The note with it: read-out: Agar Dilution MIC.
A further test deals with Klebsiella. Description: Agar Dilution MIC (Table I). The note with it: Klebsiella, read-out: Agar Dilution MIC.
Another test concerns H. influ. Put plainly: Agar Dilution MIC (Table I). Particulars: read-out: Agar Dilution MIC.
A further test has as its system Staph. aureus. Description: Agar Dilution MIC (Table I). The note with it: Staphylococcus aureus.
The next test has as its system Bacteroides corrodens. Put plainly: Susceptibility of Anaerobic Bacteroides Isolates by the Agar-Dilution Method (Table III). Particulars: Eikenella corrodens; strain 1874; readings 24 hrs. after incubation.
Source text: as §1
(§2) Susceptibility of Anaerobic Bacteroides Isolates by the
(§3) Agar-Dilution Method MIC (μg/ml) readings 24 hrs. after incubation

For test [1], the system named is Bacteroides thetaiotaomicron. The test is described as above. Particulars: 24 h.
Source text: as §1, §2, §3

A further test deals with Bacteroides fragilis. Described as above. Particulars: 24 h.
Source text: as §1, §2, §3

Where [2] appears, read: strain V41, read-out: Agar Dilution MIC.
The mark [3] stands for this setting: strain X1.1, read-out: Agar Dilution MIC.
Setting [4] is: strain X400, read-out: Agar Dilution MIC.

Consider `CC1=C(C(=O)O)N2C(=O)C(NC(=O)[C@H](N)c3csc4cc(Cl)ccc34)C2SC1` (stereo partly drawn) [Ex. 37B, D-7-(6-chloro-3-benzothienyl)glycylamido-3-methyl-3-cephem-4-carboxylic acid], for which the MIC in the test with Strep. D (strain 2041) is 32 µg/mL (≈ 73.1 µM); in the test with Strep. D (strain X66), 128 µg/mL (≈ 292 µM); against E. coli (strain EC14), 128 µg/mL (≈ 292 µM); against E. coli (strain N10), 128 µg/mL (≈ 292 µM); with E. coli (strain TEM), 128 µg/mL (≈ 292 µM); in the test on Strep. PN it was 1 µg/mL (≈ 2.28 µM). For the same molecule, the MIC with Strep. A came to 0.5 µg/mL (≈ 1.14 µM); in the test with Staph. epi (strain 222) it was 2 µg/mL (≈ 4.57 µM); in the test on Staph. epi (strain EPI1) it was 4 µg/mL (≈ 9.13 µM); in the test on Klebsiella (strain KAE), 128 µg/mL (≈ 292 µM); in the test with Klebsiella (strain X26) it was 4 µg/mL (≈ 9.13 µM); in the test with Klebsiella (strain X68), 128 µg/mL (≈ 292 µM). For the same molecule, the MIC in the test with H. influ. (strain 76) turned out to be 1 µg/mL (≈ 2.28 µM); with H. influ. (strain C.L.) it was 8 µg/mL (≈ 18.3 µM); in the test with Staph. aureus (setting [2]), 8 µg/mL (≈ 18.3 µM); with Staph. aureus (setting [3]) it was 1 µg/mL (≈ 2.28 µM); with Staph. aureus (setting [4]), 16 µg/mL (≈ 36.5 µM).
As to `CC1=C(C(=O)O)N2C(=O)C(NC(=O)[C@@H](N)c3csc4ccc(Cl)cc34)C2SC1` (stereo partly drawn) [Ex. 38A, L-7-(5-chloro-3-benzothienyl)glycylamido-3-methyl-3-cephem-4-carboxylic acid], the minimal inhibitory concentration (MIC) came out at 64 µg/mL (≈ 146 µM) in the test on Strep. D (strain 2041); 64 µg/mL (≈ 146 µM) in the test with Strep. D (strain X66); 64 µg/mL (≈ 146 µM) in the test with E. coli (strain EC14); 64 µg/mL (≈ 146 µM) with E. coli (strain N10); 64 µg/mL (≈ 146 µM) in the test with E. coli (strain TEM); 2 µg/mL (≈ 4.57 µM) against Strep. PN. The MIC with Strep. A was determined as 1 µg/mL (≈ 2.28 µM); with Staph. epi (strain 222), 16 µg/mL (≈ 36.5 µM); in the test on Staph. epi (strain EPI1), 16 µg/mL (≈ 36.5 µM); in the test on Klebsiella (strain KAE) it was 64 µg/mL (≈ 146 µM); in the test on Klebsiella (strain X26), 16 µg/mL (≈ 36.5 µM); with Klebsiella (strain X68) it was 64 µg/mL (≈ 146 µM). The MIC in the test with H. influ. (strain 76) worked out at 2 µg/mL (≈ 4.57 µM); in the test with H. influ. (strain C.L.), 32 µg/mL (≈ 73.1 µM); with Staph. aureus (read-out: Agar Dilution MIC, strain S13E), 16 µg/mL (≈ 36.5 µM); in the test on Staph. aureus (setting [2]) it was 32 µg/mL (≈ 73.1 µM); in the test with Staph. aureus (setting [3]), 8 µg/mL (≈ 18.3 µM); in the test with Staph. aureus (setting [4]), 64 µg/mL (≈ 146 µM).
With `CO[C@@]1(NC(=O)C(C(=O)O)c2ccc(O)cc2)C(=O)N2C(C(=O)O)=C(CSc3nnnn3C)CO[C@@H]21` (some centres unmarked) [moxalactam, reference compound], the MIC in the test on Bacteroides corrodens was determined as 8 µg/mL (≈ 15.4 µM); in test [1] (strain 1438, readings 24 hrs. after incubation), 2 µg/mL (≈ 3.84 µM); in test [1] (strain 1900A, readings 24 hrs. after incubation), 64 µg/mL (≈ 123 µM); in the test with Bacteroides fragilis (strain 9, readings 24 hrs. after incubation) it was 0.5 µg/mL (≈ 0.961 µM); in the test on Bacteroides fragilis (strain 103, readings 24 hrs. after incubation) it was 4 µg/mL (≈ 7.69 µM); with Bacteroides fragilis (strain 104, readings 24 hrs. after incubation) it was 0.5 µg/mL (≈ 0.961 µM). Also, the MIC worked out at 1 µg/mL (≈ 1.92 µM) in the test on Bacteroides fragilis (strain 106, readings 24 hrs. after incubation); 1 µg/mL (≈ 1.92 µM) in the test on Bacteroides fragilis (strain 107, readings 24 hrs. after incubation); 0.5 µg/mL (≈ 0.961 µM) with Bacteroides fragilis (strain 108, readings 24 hrs. after incubation); 0.5 µg/mL (≈ 0.961 µM) in the test with Bacteroides fragilis (strain 110, readings 24 hrs. after incubation); 8 µg/mL (≈ 15.4 µM) against Bacteroides fragilis (strain 111, readings 24 hrs. after incubation); 2 µg/mL (≈ 3.84 µM) against Bacteroides fragilis (strain 1877, readings 24 hrs. after incubation).
